IC50 data for 11 compounds are collected here from US11590134B2, “Aminopyrimidine amide autophagy inhibitors and methods of use thereof” (Deciphera Pharmaceuticals, LLC, priority 2019, dated 2023).

Experiment [1] deals with T1, ULK1 kinase (Homo sapiens, UniProt O75385).
T1 construct: purchased Eurofins 14-959
T1 sequence (O75385 with tags, fused parts or gaps): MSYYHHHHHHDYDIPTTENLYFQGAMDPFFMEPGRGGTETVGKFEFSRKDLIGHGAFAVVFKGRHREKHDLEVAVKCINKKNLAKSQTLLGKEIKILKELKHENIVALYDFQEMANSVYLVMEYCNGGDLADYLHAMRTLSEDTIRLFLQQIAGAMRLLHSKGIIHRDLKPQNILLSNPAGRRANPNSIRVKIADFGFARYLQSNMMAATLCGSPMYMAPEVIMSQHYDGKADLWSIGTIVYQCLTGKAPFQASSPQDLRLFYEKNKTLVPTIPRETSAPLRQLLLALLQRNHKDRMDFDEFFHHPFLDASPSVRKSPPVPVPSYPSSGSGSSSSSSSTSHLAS
Nature of the experiment: Biochemical assay for ULK1.2 (coupled pyruvate kinase/lactate dehydrogenase assay). The note with it: 19 nM ULK1 (residues 1-314), myelin basic protein substrate, 1 mM ATP. The method, then: (§1) Activity of ULK1 kinase was determined spectroscopically using a coupled pyruvate kinase/lactate dehydrogenase assay that continuously monitors the ATP hydrolysis-dependent oxidation of NADH (e.g., Schindler et al. Science (2000) 289: 1938-1942). Assays were conducted in 384-well plates (100 uL final volume) using 19 nM ULK1 (Eurofins CAT #14-959), 0.25 mg/mL myelin basic protein, 1.5 units pyruvate kinase, 2.1 units lactate dehydrogenase, 1 mM phosphoenol pyruvate, 0.28 mM NADH and 1 mM ATP in assay buffer (100 mM Tris, pH 7.5, 15 mM MgCl2, 0.5 mM DTT, 0.1% octyl-glucoside, 0.002% (w/v) BSA, and 0.002% Triton X-100). Inhibition of ULK1 was measured by adding serial diluted test compound (final assay concentration of 1% DMSO). A decrease in absorption at 340 nm was monitored continuously for 6 hours at 30° C. on a multi-mode microplate reader (BioTek). The reaction rate was calculated using the 2-3 h time frame. The reaction rate at each concentration of compound was converted to percent inhibition using controls (i.e. reaction with no test compound and reaction with a known inhibitor) and IC50 values were calculated by fitting a four-parameter sigmoidal curve to the data using Prism (GraphPad software).

The subject of experiment [2] is ULK kinase substrate ATG13 (phospho-Serine 318 ATG13) in A549 cells. Nature of the experiment: pATG13 ELISA in mutant KRas A549 cells in combination with trametinib. As to conditions: A549 (KRAS mutant) human lung cancer cells, with 250 nM trametinib, overnight. It counts as cell-based. The method, then: A549 (KRAS mutant) human lung cancer cells (6,000 cells/well) were added to a 384-well tissue-culture treated plate in 50 μL of pre-warmed DMEM medium supplemented with 10% characterized fetal bovine serum (Invitrogen, Carlsbad, Calif.), 100 units/mL penicillin G, and 100 μg/mL streptomycin and allowed to grow overnight at 37° C., 5% CO2, and 95% humidity. The following day, 10 μL of media containing trametinib or DMSO as a control was added to wells. The final concentration of trametinib in wells was 250 nM. A dose response of a test compound (0.6 μL per well) was added. DMSO (0.6 μL) was added to control wells. The plate was briefly shaken to mix wells and then incubated at 37° C. overnight. The next day, the media was aspirated and cells were washed with Dulbecco's Phosphate Buffered Saline (Gibco). Cells were lysed using MPER lysis buffer (Pierce, Rockford, Ill.) containing Halt Phosphatase and Protease Inhibitors (Pierce, Rockford, Ill.) and Phosphatase inhibitor cocktail 2 (Sigma, St. Louis, Mo.) at 4° C. for 10 minutes with shaking.
Cellular levels of phospho-Serine 318 ATG13 (pATG13) were measured via an ELISA method. Total ATG13 Antibody (Cell Signaling Cat #13273) was used to coat the wells. The plate was incubated at 4° C. overnight and washed with ELISA wash buffer (Biolegend Cat #421601). The wells were then blocked with assay diluent (Biolegend Cat #421203) for 1 hour at room temperature. Plate wells were washed with ELISA wash buffer. Cell lysate was added to wells and incubated at room temperature for 2 hours. Plate wells were washed with ELISA wash buffer. Biotinylated pS318-ATG13 antibody (Rockland Immunochemicals Cat #600-401-C49) was diluted in assay diluent and added to each well and incubated at room temperature for 1 hour. Plate wells were washed with ELISA wash buffer. Streptavidin linked to horseradish peroxidase (Thermo Fisher Cat #21140) was diluted in assay diluent and added to each well and incubated at room temperature for 1 hour. Plate wells were washed with ELISA wash buffer. High sensitivity TMB substrate (Biolegend Cat #421101) was added to each well and incubated at room temperature for 20 minutes. The reaction was stopped with 2N Sulfuric Acid. The plate was analyzed at on a plate reader measuring absorbance at 450 nm and 540 nm (background). Signal was calculated by first subtracting the background absorbance at 540 nm from the absorbance at 450 nm for each well. Next, the background corrected absorbance at 450 nm from blank wells was subtracted from test wells. Data was compared to control wells to determine % ATG13 phosphorylation. GraphPad Prism was used to calculate IC50 values.
On the technique in general: ELISA stands for enzyme-linked immunosorbent assay.

The next experiment has as its target T2, LRRK2 kinase (Homo sapiens, UniProt Q5S007).
T2 construct: (residues 970-2528; ID NO; 4); purchased Thermo Fisher
Put plainly: Biochemical assay for LRRK2 (coupled pyruvate kinase/lactate dehydrogenase assay). The note with it: 26.4 nM LRRK2 (residues 970-2528), peptide substrate, 1 mM ATP. As for the experimental part: (§2) Activity of LRRK2 kinase was determined spectroscopically using a coupled pyruvate kinase/lactate dehydrogenase assay that continuously monitors the ATP hydrolysis-dependent oxidation of NADH (e.g., Schindler et al. Science (2000) 289: 1938-1942). Assays were conducted in 384-well plates (100 uL final volume) using 26.4 nM LRRK2 (Thermo Fisher), 0.1 mM peptide substrate (RLGRDKYKTLRQIRQ (SEQ ID NO: 6)), 1.5 units pyruvate kinase, 2.1 units lactate dehydrogenase, 1 mM phosphoenol pyruvate, 0.28 mM NADH and 1 mM ATP in assay buffer (100 mM Tris, pH 7.5, 15 mM MgCl2, 0.5 mM DTT, 0.004% (w/v) BSA, and 0.004% Triton X-100). Inhibition of LRRK2 was measured by adding serial diluted test compound (final assay concentration of 1% DMSO). A decrease in absorption at 340 nm was monitored continuously for 6 hours at 30° C. on a multi-mode microplate reader (BioTek). The reaction rate was calculated using the 2-3 h time frame. The reaction rate at each concentration of compound was converted to percent inhibition using controls (i.e. reaction with no test compound and reaction with a known inhibitor) and IC50 values were calculated using software routines in Prism (GraphPad software).

The target in experiment [3] is T3, ULK1 kinase (Homo sapiens, UniProt O75385, E37A/K38A).
T3 construct: (residues 1-283; ID NO: 2); purchased Beryllium
T3 sequence (O75385 1-283 E37A/K38A): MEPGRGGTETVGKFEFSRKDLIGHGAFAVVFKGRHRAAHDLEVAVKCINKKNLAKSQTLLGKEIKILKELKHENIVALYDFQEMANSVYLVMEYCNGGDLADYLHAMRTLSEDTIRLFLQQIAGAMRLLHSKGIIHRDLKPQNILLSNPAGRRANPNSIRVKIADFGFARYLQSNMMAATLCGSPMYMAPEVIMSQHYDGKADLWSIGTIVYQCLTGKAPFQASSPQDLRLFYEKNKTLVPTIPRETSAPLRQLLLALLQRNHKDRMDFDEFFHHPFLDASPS
Nature of the experiment: Biochemical assay for ULK1.3 (coupled pyruvate kinase/lactate dehydrogenase assay). As to conditions: 0.1 nM ULK1 (residues 1-283), peptide substrate, 1 mM ATP. As for the experimental part:
as §2, with “ULK1” for “LRRK2”, “0.1” for “26.4”, “ULK1 (from Beryllium), 0.075” for “LRRK2 (Thermo Fisher), 0.1”, “(YANWLAASIYLDGKKK” for “(RLGRDKYKTLRQIRQ”, “5)),” for “6)),”

The target of another experiment is T4, ULK2 kinase (Homo sapiens, UniProt Q8IYT8).
T4 construct: purchased Eurofins 14-772
T4 sequence (Q8IYT8 with tags, fused parts or gaps): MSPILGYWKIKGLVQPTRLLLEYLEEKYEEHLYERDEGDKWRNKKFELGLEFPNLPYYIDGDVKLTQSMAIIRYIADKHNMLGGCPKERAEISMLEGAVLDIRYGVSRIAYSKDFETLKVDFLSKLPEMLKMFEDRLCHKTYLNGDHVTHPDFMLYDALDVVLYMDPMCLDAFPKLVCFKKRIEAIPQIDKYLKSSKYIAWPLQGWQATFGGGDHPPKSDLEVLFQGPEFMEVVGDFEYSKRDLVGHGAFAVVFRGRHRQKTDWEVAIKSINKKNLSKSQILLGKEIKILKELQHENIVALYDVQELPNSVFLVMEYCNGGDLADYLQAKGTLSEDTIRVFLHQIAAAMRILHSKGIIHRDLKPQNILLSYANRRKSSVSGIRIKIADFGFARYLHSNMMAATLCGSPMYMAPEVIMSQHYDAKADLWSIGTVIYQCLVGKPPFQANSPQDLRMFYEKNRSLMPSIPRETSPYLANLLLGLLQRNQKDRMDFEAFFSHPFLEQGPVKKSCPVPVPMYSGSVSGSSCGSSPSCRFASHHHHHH
Put plainly: Biochemical assay for ULK2 (coupled pyruvate kinase/lactate dehydrogenase assay). As to conditions: 9.7 nM ULK2 (residues 1-306), myelin basic protein substrate, 1 mM ATP; read-out: ULK2.2. The method, then: as §1, with “of ULK2” for “of ULK1”, “using 9.7” for “using 19”, “nM ULK2” for “nM ULK1”, “CAT #14-772),” for “CAT #14-959),”

Structures are written as SMILES. pIC50: −log10 of the molar value.

T2 sequence (Q5S007 with tags, fused parts or gaps): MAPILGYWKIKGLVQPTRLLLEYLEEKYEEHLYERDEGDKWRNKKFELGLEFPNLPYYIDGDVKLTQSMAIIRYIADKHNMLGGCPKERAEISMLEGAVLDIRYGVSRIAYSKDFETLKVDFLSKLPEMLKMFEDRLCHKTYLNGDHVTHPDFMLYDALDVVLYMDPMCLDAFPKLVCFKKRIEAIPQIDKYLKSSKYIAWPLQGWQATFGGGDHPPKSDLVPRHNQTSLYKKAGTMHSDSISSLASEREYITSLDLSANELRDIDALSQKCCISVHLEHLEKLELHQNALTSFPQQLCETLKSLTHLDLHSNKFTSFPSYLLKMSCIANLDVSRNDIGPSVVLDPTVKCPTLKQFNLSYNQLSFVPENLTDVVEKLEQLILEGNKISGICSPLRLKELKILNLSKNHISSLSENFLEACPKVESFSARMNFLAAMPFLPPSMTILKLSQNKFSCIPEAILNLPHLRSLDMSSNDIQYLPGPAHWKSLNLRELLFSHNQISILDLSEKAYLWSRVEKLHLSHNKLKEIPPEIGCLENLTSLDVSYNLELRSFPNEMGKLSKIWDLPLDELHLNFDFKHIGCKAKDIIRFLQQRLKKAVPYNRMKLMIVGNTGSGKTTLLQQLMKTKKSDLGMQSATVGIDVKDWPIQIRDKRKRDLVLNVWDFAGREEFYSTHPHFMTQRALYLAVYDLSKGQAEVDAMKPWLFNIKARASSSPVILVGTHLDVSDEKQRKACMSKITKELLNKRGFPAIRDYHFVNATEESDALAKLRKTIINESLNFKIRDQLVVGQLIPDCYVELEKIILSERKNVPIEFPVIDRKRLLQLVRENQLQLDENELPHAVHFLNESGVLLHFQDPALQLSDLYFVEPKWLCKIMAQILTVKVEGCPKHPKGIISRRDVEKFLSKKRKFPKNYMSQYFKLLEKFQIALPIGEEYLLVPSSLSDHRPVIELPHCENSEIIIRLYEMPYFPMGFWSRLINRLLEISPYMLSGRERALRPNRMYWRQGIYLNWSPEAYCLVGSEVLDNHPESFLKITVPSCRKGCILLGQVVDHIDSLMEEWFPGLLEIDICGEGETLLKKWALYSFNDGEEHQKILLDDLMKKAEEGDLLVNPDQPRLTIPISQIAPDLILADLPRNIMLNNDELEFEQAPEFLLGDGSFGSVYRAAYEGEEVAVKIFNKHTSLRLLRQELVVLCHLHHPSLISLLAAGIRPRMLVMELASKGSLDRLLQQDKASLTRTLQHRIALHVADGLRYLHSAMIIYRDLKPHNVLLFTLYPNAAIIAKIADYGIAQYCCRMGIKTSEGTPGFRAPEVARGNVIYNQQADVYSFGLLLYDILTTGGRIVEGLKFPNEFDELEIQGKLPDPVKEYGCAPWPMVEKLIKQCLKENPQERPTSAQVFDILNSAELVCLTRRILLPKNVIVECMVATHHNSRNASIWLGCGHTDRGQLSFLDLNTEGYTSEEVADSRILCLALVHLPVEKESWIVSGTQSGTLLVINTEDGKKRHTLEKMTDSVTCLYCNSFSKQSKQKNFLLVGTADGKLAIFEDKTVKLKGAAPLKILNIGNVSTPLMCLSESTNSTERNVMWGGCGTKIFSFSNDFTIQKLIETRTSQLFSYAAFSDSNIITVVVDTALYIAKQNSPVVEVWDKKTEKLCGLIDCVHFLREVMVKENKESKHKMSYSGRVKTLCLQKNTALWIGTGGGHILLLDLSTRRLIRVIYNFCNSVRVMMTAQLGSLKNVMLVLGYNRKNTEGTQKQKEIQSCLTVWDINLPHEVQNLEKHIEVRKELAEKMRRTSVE

For the compound `Cc1cc(N2CCN(C)CC2)ccc1Nc1ncc(C(F)(F)F)c(NCCCNC(=O)C2CCC2)n1` [Example 2], the pIC50 against ULK1 kinase [1] was 7.60 to 9.00; in experiment [2], 6.52 to 7.00; against LRRK2 kinase it was 7.00 to 9.00.
For `CCc1cc(N2CCN(C)CC2)ccc1Nc1ncc(Br)c(NCCCNC(=O)C2CCC2)n1` [Example 7], the results for the pIC50 against ULK1 kinase [3], on ULK2 kinase and against LRRK2 kinase were 7.00 to 7.60, 6.30 to 7.00 and 6.52 to 7.00, respectively.
The corresponding values for `CN1CCN(c2ccc(Nc3ncc(Br)c(NCCCNC(=O)C4CCC4)n3)c(C3CC3)c2)CC1` [Example 9] are 7.00 to 7.60, 6.30 to 7.00 and 6.52 to 7.00.
As for `CC(C)Oc1cc(N2CCN(C)CC2)ccc1Nc1ncc(Cl)c(NCCCNC(=O)C2CCC2)n1` [Example 10], the pIC50 is 4.70 to 6.30 on ULK1 kinase [3], 4.70 to 6.30 at ULK2 kinase and 6.52 to 7.00 on LRRK2 kinase.
On to `Cc1cc(C2CCNCC2)ccc1Nc1ncc(C(F)(F)F)c(NCCCN(C)C(=O)C2CCC2)n1` [Example 16], for which the pIC50 against ULK1 kinase [1] is 7.60 to 9.00; on ULK2 kinase, 7.00 to 7.60; in experiment [2], 6.52 to 7.00; on LRRK2 kinase, 7.00 to 9.00.
Turning to `CCc1cc(N2CCN(C)CC2)ccc1Nc1ncc(C2CC2)c(NCCCNC(=O)C2CCC2)n1` [Example 19], the pIC50 against ULK1 kinase [3] was 4.70 to 6.30; at ULK2 kinase, 4.70 to 6.30; at LRRK2 kinase it was 4.70 to 6.22.
As to `[2H]C([2H])([2H])N1CCC(n2cc(Nc3ncc(C(F)(F)F)c(NCCCNC(=O)C4CCC4)n3)c(C)n2)CC1` [Example 20], the pIC50 against ULK1 kinase [1] was 7.60 to 9.00; at ULK2 kinase, 7.00 to 7.60; in experiment [2] it was 6.52 to 7.00; on LRRK2 kinase, 6.52 to 7.00.
Turning to `Cc1nn(C2CCNCC2)cc1Nc1ncc(C(F)(F)F)c(NCCCNC(=O)C2CCC2)n1` [Example 21, N-(3-((2-((3-methyl-1-(piperidin-4-yl)-1H-pyrazol-4-yl)amino)-5-(trifluoromethyl)pyrimidin-4-yl)amino)propyl)cyclobutanecarboxamide], the pIC50 is 7.60 to 9.00 against ULK1 kinase [1], 7.00 to 7.60 at ULK2 kinase, 6.52 to 7.00 in experiment [2] and 7.00 to 9.00 at LRRK2 kinase.
Turning to `Cc1nn(C2CCN(C(C)C)CC2)cc1Nc1ncc(C(F)(F)F)c(NCCCNC(=O)C2CCC2)n1` [Example 22, N-(3-((2-((1-(1-isopropylpiperidin-4-yl)-3-methyl-1H-pyrazol-4-yl)amino)-5-(trifluoromethyl)pyrimidin-4-yl)amino)propyl)cyclobutanecarboxamide], the pIC50 on ULK1 kinase [1] was 7.00 to 7.60; in experiment [2] it was 6.22 to 6.52; against LRRK2 kinase it was 7.00 to 9.00.
In the case of `Cc1nn(C2CCN(CC(C)C)CC2)cc1Nc1ncc(C(F)(F)F)c(NCCCNC(=O)C2CCC2)n1` [Example 23], the pIC50 at ULK1 kinase [1] was 7.60 to 9.00; at ULK2 kinase, 7.00 to 7.60; in experiment [2], 7.00 to 8.00; against LRRK2 kinase, 7.00 to 9.00.
Take `Cc1nn(C(C)(C)C(N)=O)cc1Nc1ncc(C(F)(F)F)c(NCCCNC(=O)C2CCC2)n1` [Example 26, N-(3-((2-((1-(1-amino-2-methyl-1-oxopropan-2-yl)-3-methyl-1H-pyrazol-4-yl)amino)-5-(trifluoromethyl)pyrimidin-4-yl)amino)propyl)cyclobutanecarboxamide]: the results for the pIC50 against ULK1 kinase [3], on ULK2 kinase and on LRRK2 kinase were 4.70 to 6.30, 4.70 to 6.30 and 7.00 to 9.00, respectively.
